{"source": "paper PMC4764579", "about": "“Structural insights into the mechanism of activation of the TRPV1 channel by a membrane-bound tarantula toxin” (eLife, 2016)", "note": "Positions of bridges follow the written chain, without caps; N, C: chain ends. Residues, ends and D or L forms follow the SMILES beside them."}
{"experiment": "Membrane partitioning of toxins into lipid vesicles measured using Trp fluorescence", "assay_type": "physicochemical", "conditions": "Trp fluorescence, excitation 280 nm, F/F0 at 320 nm; LUVs 1:1 POPC:POPG extruded through 100 nm; toxin 2 or 5 µM in 10 mM HEPES, 1 mM EDTA, pH 7.0; available lipid 60% of total; fit of partition function; ± SEM, n = 3 or 4; SEM", "excerpt": "Motivated by the amphipathic character evident in the structure of DkTx, together with the placement of the toxin at the protein-lipid interface when bound to TRPV1, we investigated the interaction of DkTx and each of its two lobes with lipid membranes. For these experiments, we took advantage of the presence of a single conserved and solvent accessible Trp residue in loop 2 of both K1 and K2 (Figure 1C,D; W11 and W53), and used Trp fluorescence to monitor the partitioning of the toxin from the aqueous solution into the membrane environment ([Gupta et al., 2015]; [Ladokhin et al., 2000]; [Milescu et al., 2007]). When aqueous solutions of DkTx were excited at a wavelength of 280 nm, emission spectra with maxima at 353 nm were obtained (Figure 5A, left), as expected for Trp residues residing in such an environment. […] To quantify the extent of partitioning as a function of lipid concentration, we measured the relative fluorescence intensity in a blue-shifted region of the spectra (e.g. 320 nm) as a function of lipid concentration, and fit a partition function to the data to obtain a mole-fraction partition coefficient (Kx) of (2.3 ± 0.7) × 10^6, indicating an energetically favorable interaction of DkTx with lipid membranes (Figure 5A, right). This strong interaction of DkTx with membranes would facilitate binding of the toxin to the channel by increasing the local concentration of the toxin near the channel and by a reduction in the dimensionality of diffusion within the membrane ([Axelrod and Wang, 1994]).\nFigure 5. Interaction of DkTx and toxin constructs with lipid membranes measured using Trp fluorescence. (A–E, left panel) Trp emission spectra of DkTx (A), K1 without linker (B), K2 (C), bivalent K1 (K1K1) (D) and bivalent K2 (K2K2) (E) in the absence (black) and presence (blue, 1.6 mM for DkTx, 2 mM for K1-ΔL and K1K1, and 3 mM for K2 and K2K2) of lipid vesicles (1:1 mix of POPC:POPG). (A–E, right panel) Relative fluorescence intensity at 320 nm (F/F0) as a function of available lipid concentrations (60% of total lipid concentration). Smooth curves correspond to partition functions with Kx = (2.3 ± 0.7) × 10^6 and F/F0^max = 2.65 ± 0.08 for DkTx, Kx = (3.9 ± 1.1) × 10^5 and F/F0^max = 2.63 ± 0.07 for K1-ΔL, Kx = (2.0 ± 0.3) × 10^4 and F/F0^max = 3.71 ± 0.40 for K2, Kx = (2.9 ± 0.3) × 10^6 and F/F0^max = 2.47 ± 0.03 for K1K1 and Kx = (8.1 ± 2) × 10^5 and F/F0^max = 2.77 ± 0.55 for K2K2. Error bars correspond to SEM (n = 3 or 4). Partition functions for K1-ΔL and K2 are shown as dotted lines for comparison in D and E, respectively. (F) Comparisons of mole-fraction partition coefficient (Kx) of toxins. 7G-DkTx denotes a construct of DkTx whose linker (PYVPVTT) is replaced with 7 Gly residues. Error bars correspond to SEM (n = 3 or 4). DOI: http://dx.doi.org/10.7554/eLife.11273.020 Figure 5—figure supplement 1. Interaction of K1-K2 chimeras with lipid membranes measured using Trp fluorescence. (A–E, left panel) Trp emission spectra of K1(D1N) (A), K1(K2L2) (B), K1(K2L3) (C), K1(K2L4) (D) and K1(K2CT) (E) in the absence (black) and presence (blue, 2 mM) of lipid vesicles (1:1 mix of POPC:POPG). (A–D, right panel) Relative fluorescence intensity at 320 nm (F/F0) as a function of available lipid concentrations (60% of total lipid concentration). Smooth curves correspond to partition functions with Kx = (1.76 ± 0.06) × 10^6 and F/F0^max = 3.79 ± 0.02 for K1(D1N), Kx = (4.77 ± 1.39) × 10^5 and F/F0^max = 1.31 ± 0.02 for K1(K2L2), Kx = (1.02 ± 0.04) × 10^4 and F/F0^max = 3.69 ± 0.02 for K1(K2L3), and Kx = (0.90 ± 0.04) × 10^6 and F/F0^max = 2.59 ± 0.02 for K1(K2L4). Error bar corresponds to SEM (n = 3 or 4). Smooth curve of K1-ΔL was shown as a dotted line for comparison throughout the figures. (F) Comparisons of mole-fraction partition coefficient (Kx) of toxins. Error bars correspond to SEM (n = 3 or 4). DOI: http://dx.doi.org/10.7554/eLife.11273.021 [drawing 10] […]"}
{"compound": "CC[C@H](C)[C@@H]1NC(=O)[C@H](Cc2ccccc2)NC(=O)[C@H](CCC(=O)O)NC(=O)[C@H](CCSC)NC(=O)[C@@H]2CCCN2C(=O)[C@@H]2CSSC[C@@H]3NC(=O)[C@H](C(C)C)NC(=O)[C@H](CCC(=O)O)NC(=O)CNC(=O)[C@H](CCC(=O)O)NC(=O)[C@H](CCCCN)NC(=O)[C@H](C)NC(=O)[C@@H](NC(=O)[C@@H](N)CC(N)=O)CSSC[C@H](NC(=O)[C@H](CSSC[C@@H](C(=O)N[C@@H](CCCCN)C(=O)N[C@@H](CCCCN)C(=O)N[C@@H](Cc4ccc(O)cc4)C(=O)N[C@@H](CCCCN)C(=O)O)NC(=O)[C@H](Cc4c[nH]cn4)NC(=O)[C@@H]4CCCN4C1=O)NC(=O)[C@H](CCCCN)NC(=O)[C@H](CCCCN)NC(=O)CNC(=O)[C@H](Cc1c[nH]c4ccccc14)NC(=O)[C@H](CO)NC3=O)C(=O)N[C@@H](CC(=O)O)C(=O)N[C@@H](CC(C)C)C(=O)N[C@@H](CC(=O)O)C(=O)N[C@@H](CC(N)=O)C(=O)N[C@@H](Cc1ccccc1)C(=O)N[C@@H](Cc1ccc(O)cc1)C(=O)N2", "note": "[K1(D1N)] (H-NCAKEGEVCSWGKKCCDLDNFYCPMEFIPHCKKYK-OH; disulfide 2-16, 9-23, 15-31)", "mole-fraction partition coefficient (Kx)": "(1.76 ± 0.06) × 10^6"}
{"compound": "CC[C@H](C)[C@@H]1NC(=O)[C@H](Cc2ccccc2)NC(=O)[C@H](CCC(=O)O)NC(=O)[C@H](CCSC)NC(=O)[C@@H]2CCCN2C(=O)[C@@H]2CSSC[C@@H]3NC(=O)[C@H](C(C)C)NC(=O)[C@H](CCC(=O)O)NC(=O)CNC(=O)[C@H](CCC(=O)O)NC(=O)[C@H](CCCCN)NC(=O)[C@H](C)NC(=O)[C@@H](NC(=O)[C@@H](N)CC(=O)O)CSSC[C@H](NC(=O)[C@H](CSSC[C@@H](C(=O)N[C@@H](CCCCN)C(=O)N[C@@H](CCCCN)C(=O)N[C@@H](Cc4ccc(O)cc4)C(=O)N[C@@H](CCCCN)C(=O)O)NC(=O)[C@H](Cc4c[nH]cn4)NC(=O)[C@@H]4CCCN4C1=O)NC(=O)[C@H](CCCCN)NC(=O)[C@H](CO)NC(=O)CNC(=O)[C@H](Cc1c[nH]c4ccccc14)NC(=O)CNC3=O)C(=O)N[C@@H](CC(=O)O)C(=O)N[C@@H](CC(C)C)C(=O)N[C@@H](CC(=O)O)C(=O)N[C@@H](CC(N)=O)C(=O)N[C@@H](Cc1ccccc1)C(=O)N[C@@H](Cc1ccc(O)cc1)C(=O)N2", "note": "[K1(K2L2)] (H-DCAKEGEVCGWGSKCCDLDNFYCPMEFIPHCKKYK-OH; disulfide 2-16, 9-23, 15-31)", "mole-fraction partition coefficient (Kx)": "(4.77 ± 1.39) × 10^5"}
{"compound": "CC[C@H](C)[C@@H]1NC(=O)[C@H](Cc2ccccc2)NC(=O)[C@H](CCC(=O)O)NC(=O)[C@H](CCSC)NC(=O)[C@@H]2CCCN2C(=O)[C@@H]2CSSC[C@@H]3NC(=O)[C@H](C(C)C)NC(=O)[C@H](CCC(=O)O)NC(=O)CNC(=O)[C@H](CCC(=O)O)NC(=O)[C@H](CCCCN)NC(=O)[C@H](C)NC(=O)[C@@H](NC(=O)[C@@H](N)CC(=O)O)CSSC[C@H](NC(=O)[C@H](CSSC[C@@H](C(=O)N[C@@H](CCCCN)C(=O)N[C@@H](CCCCN)C(=O)N[C@@H](Cc4ccc(O)cc4)C(=O)N[C@@H](CCCCN)C(=O)O)NC(=O)[C@H](Cc4c[nH]cn4)NC(=O)[C@@H]4CCCN4C1=O)NC(=O)[C@H](CCCCN)NC(=O)[C@H](CCCCN)NC(=O)CNC(=O)[C@H](Cc1c[nH]c4ccccc14)NC(=O)[C@H](CO)NC3=O)C(=O)N[C@@H](Cc1c[nH]cn1)C(=O)NCC(=O)N[C@@H](CC(C)C)C(=O)N[C@@H](CC(=O)O)C(=O)N2", "note": "[K1(K2L3)] (H-DCAKEGEVCSWGKKCCHGLDCPMEFIPHCKKYK-OH; disulfide 2-16, 9-21, 15-29)", "mole-fraction partition coefficient (Kx)": "(1.02 ± 0.04) × 10^4"}
{"compound": "CC[C@H](C)[C@@H]1NC(=O)[C@H](Cc2ccccc2)NC(=O)[C@H](C)NC(=O)[C@H](CC(C)C)NC(=O)[C@@H]2CCCN2C(=O)[C@@H]2CSSC[C@@H]3NC(=O)[C@H](C(C)C)NC(=O)[C@H](CCC(=O)O)NC(=O)CNC(=O)[C@H](CCC(=O)O)NC(=O)[C@H](CCCCN)NC(=O)[C@H](C)NC(=O)[C@@H](NC(=O)[C@@H](N)CC(=O)O)CSSC[C@H](NC(=O)[C@H](CSSC[C@@H](C(=O)N[C@@H](CCCCN)C(=O)N[C@@H](CCCCN)C(=O)N[C@@H](Cc4ccc(O)cc4)C(=O)N[C@@H](CCCCN)C(=O)O)NC(=O)[C@H](Cc4ccc(O)cc4)NC(=O)[C@@H]4CCCN4C1=O)NC(=O)[C@H](CCCCN)NC(=O)[C@H](CCCCN)NC(=O)CNC(=O)[C@H](Cc1c[nH]c4ccccc14)NC(=O)[C@H](CO)NC3=O)C(=O)N[C@@H](CC(=O)O)C(=O)N[C@@H](CC(C)C)C(=O)N[C@@H](CC(=O)O)C(=O)N[C@@H](CC(N)=O)C(=O)N[C@@H](Cc1ccccc1)C(=O)N[C@@H](Cc1ccc(O)cc1)C(=O)N2", "note": "[K1(K2L4)] (H-DCAKEGEVCSWGKKCCDLDNFYCPLAFIPYCKKYK-OH; disulfide 2-16, 9-23, 15-31)", "mole-fraction partition coefficient (Kx)": "(0.90 ± 0.04) × 10^6"}
{"compound": "CC[C@H](C)[C@@H]1NC(=O)[C@H](Cc2ccccc2)NC(=O)[C@H](CCC(=O)O)NC(=O)[C@H](CCSC)NC(=O)[C@@H]2CCCN2C(=O)[C@@H]2CSSC[C@@H]3NC(=O)[C@H](C(C)C)NC(=O)[C@H](CCC(=O)O)NC(=O)CNC(=O)[C@H](CCC(=O)O)NC(=O)[C@H](CCCCN)NC(=O)[C@H](C)NC(=O)[C@@H](NC(=O)[C@@H](N)CC(=O)O)CSSC[C@H](NC(=O)[C@H](CSSC[C@@H](C(=O)N[C@@H](CCCCN)C(=O)N[C@@H](CCCCN)C(=O)N[C@@H](Cc4ccc(O)cc4)C(=O)N[C@@H](CCCCN)C(=O)O)NC(=O)[C@H](Cc4c[nH]cn4)NC(=O)[C@@H]4CCCN4C1=O)NC(=O)[C@H](CCCCN)NC(=O)[C@H](CCCCN)NC(=O)CNC(=O)[C@H](Cc1c[nH]c4ccccc14)NC(=O)[C@H](CO)NC3=O)C(=O)N[C@@H](CC(=O)O)C(=O)N[C@@H](CC(C)C)C(=O)N[C@@H](CC(=O)O)C(=O)N[C@@H](CC(N)=O)C(=O)N[C@@H](Cc1ccccc1)C(=O)N[C@@H](Cc1ccc(O)cc1)C(=O)N2", "note": "[K1-ΔL] (H-DCAKEGEVCSWGKKCCDLDNFYCPMEFIPHCKKYK-OH; disulfide 2-16, 9-23, 15-31)", "mole-fraction partition coefficient (Kx)": "(3.9 ± 1.1) × 10^5"}
